{"source": "patent US12714094B2", "about": "“Cryoprotectant polymers and methods of making and using thereof” (BOARD OF REGENTS, THE UNIVERSITY OF TEXAS SYSTEM, priority 2019, dated 2026)", "assay": "Differential scanning calorimetry of polymer/water and polymer/PBS solutions (ice formation, Tg, phase behavior)", "assay_type": "physicochemical", "conditions": "50 wt % aqueous solution", "procedure": "Differential Scanning calorimetry (DSC). DSC was used to determine the Tg of pure polymer and aqueous polymer solutions. PMGS is hygroscopic, so PMGS batches were dried in vacuo for at least four hours prior to sample preparation. Polymer solutions were made by mixing dry PMGS with phosphate buffer solution (PBS) and hand-mixing until a homogeneous solution was achieved. DSC samples were prepared by loading TZero pans with at least 5 mg of each solution and sealing them with hermetic lids to prevent evaporation. DSC samples of pure polymer were typically scanned from −20 to 120° C. four times, and the Tg was determined from the last heating cycle. DSC samples of polymer solutions were cooled to −90 and heated to 20° C., and the Tg was determined on the heating cycle.\nDifferential scanning calorimetry. For PMGS/water mixtures, 6-8 mg of solution was placed in an aluminum DSC pan. The samples were cooled at 1° C./min to −90° C., held at −90° C. for 1 minute, then heated to 20° C. at 10° C./min. For neat PMGS, the polymer was dried overnight under vacuum, then the polymer was removed from the vacuum and 5-10 mg was immediately transferred to an aluminum DSC pan. The sample was heated to 150° C. at 10° C./min, held for 1 min, then cooled to −10° C. at 10° C./min and held for 1 min. […]", "note": "Entries after “also recorded” stand apart in the source; their conditions may differ.", "data": [{"smiles": "C[S+](C)[O-]", "note": "[DMSO, dimethyl sulfoxide]", "values": [{"measurement": "ice formation (in words)", "value": "No ice formed; also recorded: enough to arrest ice formation in solution"}]}]}
